Measured values taken from patent US20240058283A1, “THE MODE OF ACTION OF N-MeDCPA ON TRPC CHANNELS” (West Virginia University Board of Governors on Behalf of …, priority 2022, published 2024).

Key:
Serum levels in vivo = test: Serum levels in vivo
From the text: We have extensively investigated inhibitors of the store-operated Ca^2+ entry (SOCE) pathway as a target for control of bone erosion, particularly in the context of arthritis. […] On this basis, we have assessed the possibility that DCPA and/or DCPA analogs might be effective inhibitors of bone erosion in the context of arthritis^6. While this has proven to the case (data not shown), this investigation has opened new questions regarding the true identity of the DCPA target. […] As such, we have assessed the possibility that DCPA and its analogs may have a different target, especially within the context of arthritis.

osteoclasts = settings: reference 3, cited from earlier work

Structure (SMILES): CCC(=O)Nc1ccc(Cl)c(Cl)c1 [DCPA, 3,4-dichloropropionaniline]
- serum levels (Serum levels in vivo): ≤ 100 nM
- formation of bone degrading osteoclasts (osteoclasts; in vitro): reduced the formation of bone degrading osteoclasts
- concentration needed to block osteoclast differentiation (osteoclasts; no block below this concentration): ≥ 100 µM
